Usually EC50 stands for the concentration giving half of the maximal effect. A word on the IC50: it is the concentration at which inhibition is half-maximal. A higher IC50 goes with weaker potency.

The results in this text go back to patent publication US6984635B1, “Dimerizing agents, their production and use” (Board of Trustees of The Leland Stanford Jr. University, priority 1998, dated 2006).

Some results are limits rather than exact numbers.

Holding throughout (type): cell-based
The target of assay [1] is T1, Gal4-FKBP3 / FRB*-VP16 (FRB harboring T2098L, W2101F, and K2095P) (Homo sapiens, UniProt P42345+P62942, K2095P/T2098L/W2101F).
T1 construct: FRB*-VP16 (FRB harboring T2098L, W2101F, and K2095P) replaces wild type FRB-VP16; expressed in transfected cells; host or cells: Jurkat cells
T1 sequence (P62942 2-108 limits assumed): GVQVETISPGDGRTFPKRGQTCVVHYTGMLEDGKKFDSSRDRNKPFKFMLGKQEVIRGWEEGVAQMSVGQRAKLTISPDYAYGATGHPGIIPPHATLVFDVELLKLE
T1 sequence (P42345 2012-2144 K2095P/T2098L/W2101F limits assumed): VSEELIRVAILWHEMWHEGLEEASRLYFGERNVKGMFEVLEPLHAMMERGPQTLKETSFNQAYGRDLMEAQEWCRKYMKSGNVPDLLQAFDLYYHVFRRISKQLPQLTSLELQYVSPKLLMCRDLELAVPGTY
Description: activation of transcription in Jurkat cells transfected with Gal4-FKBP3, FRB*-VP16 and UAS-SEAP. As to conditions: for amplitude of reporter gene activity: FRB*-VP16, compared with rapamycin/wild type FRB-VP16 system; for EC50: FRB*-VP16 replaces wild type FRB-VP16, read-out: EC50 of reporter gene activity. The text has this:
(§1) The ability of the rapalogs to multimerize chimeric proteins may be measured in cell-based assays by measuring the occurrence of an event triggered by such multimerization. For instance, one may use cells containing and capable of expressing DNA encoding a first chimeric protein comprising one or more FKBP-domains and one or more effector domains as well as DNA encoding a second chimeric protein containing an FRB domain and one or more effector domains capable, upon multimerization, of actuating a biological response. We prefer to use cells which further contain a reporter gene under the transcriptional control of a regulatory element (i.e., promoter) which is responsive to the multimerization of the chimeric proteins. The design and preparation of illustrative components and their use in so engineered cells is described in WO96/41865 and the other international patent applications referred to in this and the foregoing section. The cells are grown or maintained in culture. A rapalog is added to the culture medium and after a suitable incubation period (to permit gene expression and secretion, e.g. several hours or overnight) the presence of the reporter gene product is measured. Positive results, i.e., multimerization, correlates with transcription of the reporter gene as observed by the appearance of the reporter gene product. The reporter gene product may be a conveniently detectable protein (e.g. by ELISA) or may catalyze the production of a conveniently detectable product (e.g. colored). Materials and methods for producing appropriate cell lines for conducting such assays are disclosed in the international patent applications cited above in this section. Typically used target genes include by way of example SEAP, hGH, beta-galactosidase, Green Fluorescent Protein and luciferase, for which convenient assays are commercially available.
Likewise, C3-allyl rapamycin and C3-methallyl rapamycin were impaired in their ability to activate transcription in Jurkat cells transfected with Gal4-FKBP3, wild type FRB-VP16, and UAS-SEAP. […] C3 derivatives of rapamycin have impaired toxicity (immunosuppressive activity) and can be used efficiently as dimerizers in conjunction with engineered FRB domains. Preparation of 24(S),30(S)-tetrahydro-C3-rapalogs [drawing 30]
For orientation: A reporter such as luciferase makes a cellular process visible.

For assay [2], the target named is T2, Gal4-FKBP3 / wild type FRB-VP16 (Homo sapiens, UniProt P42345+P62942).
T2 construct: Jurkat cells transfected with Gal4-FKBP3, wild type FRB-VP16, and UAS-SEAP; expressed in transfected cells; host or cells: Jurkat cells
T2 sequence (P62942 2-108 limits assumed): as the sequence (P62942 2-108 limits assumed) above
T2 sequence (P42345 2012-2144 limits assumed): as the sequence (P42345 2012-2144 K2095P/T2098L/W2101F limits assumed) above, with P84K, L87T, F90W counted along it
Description: activation of transcription in Jurkat cells transfected with Gal4-FKBP3, wild type FRB-VP16 and UAS-SEAP.
Source text: as §1, with “The reporter gene product may be a conveniently detectable protein (e.g. by ELISA) or may catalyze the production of a conveniently detectable product (e.g. colored). Materials and methods for producing appropriate cell lines for conducting such assays are disclosed in the international patent applications cited above in this section. Typically used target genes include by way of example SEAP, hGH, beta-galactosidase, Green Fluorescent Protein and luciferase, for which convenient assays are commercially available.” left out

A further assay concerns CTLL-2 cells. Description: inhibition of proliferation of CTLL-2 cells (toxicity). How it is done: The toxicity of the lead compounds was tested by their ability to inhibit the proliferation of CTLL-2 cells, which are IL-2 dependent and highly sensitive to rapamycin (IC50<1 nM).

On to `C=CCC1C=CC(C)=CCC2CCC(C)C(O)(O2)C(=O)C(=O)N2CCCCC2C(=O)OC(C(C)CC2CCC(O)C(OC)C2)CC(=O)C(C)C=C(C)C(O)C(OC)C(=O)C(C)CC(C)C=C1` (centres unmarked) [C3-allyl rapamycin, 3-allyl-rapamycin], for which, in assay [1], the “amplitude of reporter gene activity” value was “higher than that elicited by the rapamycin/wild type FRB-VP16 system” and the EC50 is approximately 10 nM. In assay [2], the “ability to activate transcription (SEAP reporter)” value was “impaired”.
Turning to `C=C(C)CC1C=CC(C)=CCC2CCC(C)C(O)(O2)C(=O)C(=O)N2CCCCC2C(=O)OC(C(C)CC2CCC(O)C(OC)C2)CC(=O)C(C)C=C(C)C(O)C(OC)C(=O)C(C)CC(C)C=C1` (centres unmarked) [C3-methallyl rapamycin, 3-methallyl-rapamycin], in assay [1], the “amplitude of reporter gene activity” value is “higher than that elicited by the rapamycin/wild type FRB-VP16 system” and the EC50 was approximately 10 nM. Moreover, the “ability to activate transcription (SEAP reporter)” value in assay [2] is listed as “impaired”. In the assay on CTLL-2 cells (incubation with 1 μM compound), the “effect on proliferation of CTLL-2 cells” value is “no detectable effect”.
Rapamycin [reference compound] came in with an IC50 in the assay with CTLL-2 cells (IL-2 dependent CTLL-2 cells) of less than 1 nM.
